Our source for the Activity values is ChEMBL document CHEMBL1151329, “New cyclic peroxides from the Philippine sponge Plakinastrella sp” (J Nat Prod, 1998).

SMILES strings stand for the structures. Active and inactive are the calls of the source. No cut-off for these calls is given here.

This assay deals with Candida albicans. Nature of the assay: Antifungal activity against Candida albicans. Format: functional, organism-based.
With `CCC(C)CCCCCC/C=C\CC/C=C\CCCC(=O)OC` (centres undefined), the outcome was inactive. Then `C[C@@]1(CCCCCCCCCCc2ccccc2)C[C@]2(C)OC(=O)C[C@@H]2OO1`, with “inactive”; and `CC/C=C\C/C=C/C=C/CCCCCC[C@@]1(C)C[C@](C)(CC(=O)O)OO1` (relative stereo), with “inactive”; and `CC/C=C\C/C=C/C=C/CCCCCC[C@@]1(C)C[C@](C)(CC(=O)OC)OO1` (relative stereo), with “inactive”.
